Measurements: ChEMBL document CHEMBL3085639, “Novel camphane-based anti-tuberculosis agents with nanomolar activity” (2013)
≈ marks a conversion by molar mass, not a printed value. Where a name gives a salt, the structure may show the parent alone.

How the values were obtained:
[1] = test system: Mycobacterium tuberculosis; assay: Antimycobacterial activity against Mycobacterium tuberculosis; assay type: functional
[2] = test system: Mycobacterium tuberculosis; assay: Antimycobacterial activity against Mycobacterium tuberculosis H37Rv assessed as growth inhibition after 45 days by Canetti proportional method; assay type: functional; details: for MIC: Mycobacterium tuberculosis, H37Rv

SMILES | MIC [1] [µM] | -logMIC [2] | MIC [2] [µM]
CC[C@@H](CO)NCCN[C@@H](CC)CO [ETHAMBUTOL] | 10 (≈ 2.04 µg/mL) | – | –
CC[C@H](C)[C@H](O)C(=O)N[C@@H]1[C@H]2CC[C@@](C)([C@@H]1O)C2(C)C | – | 5.151 | 7.06 (≈ 2 µg/mL)
CC(C)[C@H](O)C(=O)N[C@@H]1[C@H]2CC[C@@](C)([C@@H]1O)C2(C)C | – | 6.131 | 0.74 (≈ 0.199 µg/mL)
CC1(C)[C@@H]2CC[C@@]1(C)[C@H](O)[C@@H]2NP(=O)(c1ccccc1)c1ccccc1 | – | 4.868 | 13.6 (≈ 5.01 µg/mL)
CSCC[C@H](O)C(=O)N[C@@H]1[C@H]2CC[C@@](C)([C@@H]1O)C2(C)C | – | 6.18 | 0.66 (≈ 0.199 µg/mL)
CC1(C)[C@@H]2CC[C@@]1(C)[C@H](O)[C@@H]2NC(=O)c1cccnc1 | – | 6.444 | 0.36 (≈ 0.0988 µg/mL)
CC(=O)Oc1ccccc1C(=O)N[C@@H]1[C@H]2CC[C@@](C)([C@@H]1O)C2(C)C | – | 6.523 | 0.3 (≈ 0.0994 µg/mL)
CCNC(=O)N[C@@H]1[C@H]2CC[C@@](C)([C@@H]1O)C2(C)C | – | 6.387 | 0.41 (≈ 0.0985 µg/mL)
CC1(C)[C@@H]2CC[C@@]1(C)[C@H](O)[C@@H]2NC(=O)/C=C/c1ccccc1 | – | 6.481 | 0.33 (≈ 0.0988 µg/mL)
CC[C@@H](CO)NCCN[C@@H](CC)CO [ETHAMBUTOL HYDROCHLORIDE] | – | – | 7.22
CC1(C)[C@@H]2CC[C@@]1(C)[C@H](O)[C@@H]2NC(=O)c1ccco1 | – | 6.42 | 0.38 (≈ 0.1 µg/mL)
CC1(C)[C@@H]2CC[C@@]1(C)[C@H](O)[C@@H]2NC(=O)[C@@H](O)Cc1ccccc1 | – | 5.201 | 6.3 (≈ 2 µg/mL)
CC1(C)[C@@H]2CC[C@@]1(C)[C@H](O)[C@@H]2NC(=O)[C@@H](O)c1ccccc1 | – | 4.783 | 16.5 (≈ 5.01 µg/mL)
CC1(C)[C@@H]2CC[C@@]1(C)[C@H](O)[C@@H]2NC(=O)CCc1ccccc1 | – | 6.481 | 0.33 (≈ 0.0995 µg/mL)
